Data from patent US20130064768A1, “LIPOPHILIC CATIONIC PROBE FOR PET-IMAGING” (Medical Research Council, priority 2010, published 2013).
Read-outs that look alike come from different tables or passages of the source.

Experiments:
[1] = published values; cited from earlier work
[2] = Tissue and blood distribution of [3H]TPP compounds after iv tail vein injection
Method: A sample of the [^3H]compound solution injected was retained to calculate the specific activity, which was subsequently used to determine the tissue content of the compound. At the indicated times after injection, the mice were killed by cervical dislocation and a blood sample of ˜100-200 μL was obtained by cardiac puncture. The organs were then removed, cleared of blood, transferred to pre-chilled Eppendorf tubes on ice, weighed and stored at −80° C. until processing. The tissues taken were: heart, kidneys, liver, brain, skeletal muscle (gastrocnemius) and white adipose tissue (subcutaneous). […] The mice were monitored after injection to ensure no pathology or distress and all procedures were carried out under the approval of the University of Otago animal ethics committee.
Extraction of [^3H] Compounds from Tissues Tissues were thawed at room temperature and transferred to 50 mL Falcon tubes. Ice-cold methanol 4° C.; 1 mL/100 mg tissue wet weight) was added to the tissue and the tissue homogenised using an Ultraturrax homogeniser (2×30 s on ice).
The homogenate was transferred in 1 mL batches to 1.5 mL Eppendorf tubes and centrifuged (10,000×g for 8 min at 4° C.). The methanol extract was decanted into a 20 ml glass scintillation vial (Wheaton) and the methanol evaporated under a stream of N2. Further ice-cold methanol (1 mL/100 mg) was added to the tissue homogenate pellets, vortexed for 1 min, centrifuged as above and the methanol extract decanted to a fresh 20 mL glass scintillation vial and evaporated. This procedure was repeated 3 more times to give 5 extracts per tissue sample. […] The specific activity of the injected [^3H] compound was then used to calculate the tissue content uptake as mol compound/g wet weight tissue. The half lives of compounds in organs were determined from the first order rate constants for loss of [^3H] compound from the organs, measured as the slope of ln[TPP compound] against time for the first 5 h after iv injection.

[3] = system: mitochondrial membrane potential; experiment: Effect of the uncoupler DNP on organ uptake of [3H]FluoroUndecylTPP in vivo; design: species or system mice; conditions: DNP 200 or 300 μg/kg ip 15 min after probe, organs taken 15 min later; dose dependent
Method: (§1) After 15 min the mice were injected ip with DNP (200 or 300 μg/kg) or saline carrier and after a further 15 min later they were killed and the content of [^3H]FluoroUndecylTPP in the tissues determined. Data are means ± range for two mice per condition. B, IAM-TPP is shown being taken up in to mitochondria within a cell where it reacts with thiol proteins to form a thioether adduct that can then be detected by immunoblotting. C, Confocal image of IAM-TPP binding to mitochondria in cells. C2C12 cells were incubated with 1 μM IAM-TPP for 3 h±10 μM FCCP. The cells were then fixed and the location of the TPP moiety within the cells determined by labelling with antiserum against the TPP moiety, visualised by immunofluorescence confocal microscopy. […] The mitochondria (40 μg protein) were separated by SDS-PAGE and proteins that had been labelled with IAM-TPP were detected by immunoblotting using antiserum against the TPP moiety. […]
Therefore it is likely that once the alkylTPP compounds are accumulated within tissues they are predominantly localised within mitochondria, driven by the membrane potential. To see if this was the case in these experiments, it was next determined if the uptake of the alkylTPP compounds in vivo was decreased by lowering the mitochondrial membrane potential. […]

[4] = system: mitochondrial protein thiols; experiment: Incubation of IAM-TPP with isolated mitochondria; conditions: data not shown
[5] = system: liver and heart mitochondria; experiment: IAM-TPP uptake by mitochondria in vivo (immunoblot with anti-TPP antiserum); design: species or system mice; conditions: 500 nmol iv, mitochondria isolated 1 h later
Method: as §1
(§2) To assess uptake of IAM-TPP by mitochondria in vivo, mice were injected iv by the tail vein as above with 500 nmol IAM-TPP in 100 μL sterile PBS. One hour later the mice were killed by cervical dislocation and liver and heart mitochondria prepared by homogenisation followed by differential centrifugation and the protein content determined by the bicinchoninic acid assay using bovine serum albumin as a standard. […]

C2C12 cells = experiment: IAM-TPP uptake into mitochondria within cells (immunocytochemistry, confocal microscopy); format: cell-based, mouse; conditions: 1 μM, 3 h, ±10 μM FCCP
Method: as §1, §2

[6] = Octan-1-ol/PBS partition coefficient; conditions: determined in this study
[7] = Monitoring of mice for toxicity after iv injection of TPP cations; format: in vivo; conditions: 100 nmol iv in mice
Method: Female C57/BL6 mice (20-25 g) were maintained on a 12 h light/dark cycle with ad libitum access to standard lab chow and water. […] A sample of the [^3H]compound solution injected was retained to calculate the specific activity, which was subsequently used to determine the tissue content of the compound. At the indicated times after injection, the mice were killed by cervical dislocation and a blood sample of ˜100-200 μL was obtained by cardiac puncture. The organs were then removed, cleared of blood, transferred to pre-chilled Eppendorf tubes on ice, weighed and stored at −80° C. until processing. The tissues taken were: heart, kidneys, liver, brain, skeletal muscle (gastrocnemius) and white adipose tissue (subcutaneous). […] The mice were monitored after injection to ensure no pathology or distress and all procedures were carried out under the approval of the University of Otago animal ethics committee.

[8] = 24 h after iv injection, other studies; cited from earlier work
[9] = mice, 100 nmol iv bolus, first 5 h after injection

In the case of `CCCCCCCCCC[P+](c1ccccc1)(c1ccccc1)c1ccccc1` [DecylTPP], the Octanol/PBS partition coefficient [1] is listed as 5000, the “half life for clearance from fat and muscle” value ([2]; mouse, in vivo, iv) is listed as 7 to 12 h and the “half life for loss from the heart” value ([2]; mouse, in vivo, iv) is listed as ~15 h. For the same compound, the “half life for loss from the kidneys” value ([2]; mouse, in vivo, iv) was ~3 h and the “half life for loss from the liver” value ([2]; mouse, in vivo, iv) was ~3 h.
With `CS(=O)(=O)[O-].FCCCCCCCCCCC[P+](c1ccccc1)(c1ccccc1)c1ccccc1` [FluoroUndecylTPP, 11-fluoroundecyltriphenylphosphonium mesylate] the “half life for loss from the heart” value [2, 9] was ~21 h, the “half life for loss from the kidneys” value [2, 9] was ~3 h and the “half life for loss from the liver” value [2, 9] was ~3 h. For the same compound, the “enhancement of organ/blood concentration ratio relative to TPMP” value ([2]; mice, iv) was “over a hundred-fold” and the “decrease of uptake into the organs by DNP” value [3] was “up to 40%”.
In the case of `CS(=O)(=O)[O-].O=C(CI)NCCCCC[P+](c1ccccc1)(c1ccccc1)c1ccccc1` [IAM-TPP], the “reaction with protein thiols of isolated mitochondria” value [4] is reported as “rapidly reacted with protein thiols”, the “labelling of mitochondrial proteins in vivo” value [5] is reported as “labelling of heart and liver mitochondrial proteins” and the localisation within cells (C2C12 cells) is reported as “uncoupler-sensitive localisation of IAM-TPP within mitochondria”. For the same compound, the Octanol/PBS partition coefficient [6] was 19±1.
For `COC1=C(OC)C(=O)C(CCCCCCCCCC[P+](c2ccccc2)(c2ccccc2)c2ccccc2)=C(C)C1=O` [MitoQ], the “toxicity of the injected amount” value [7] is given as “non-toxic”, the Octanol/PBS partition coefficient [1] is given as 2760 and the MitoQ eliminated [8] is given as ~80%. The “uptake by muscle and adipose tissue” value ([2]; 1 h after 100 nmol iv) was “lower uptake”, the “uptake by the brain” value ([2]; 1 h after 100 nmol iv) was “very little uptake” and the “uptake by the heart” value ([2]; 1 h after 100 nmol iv) was “less extensive uptake”. The “uptake by the liver and kidneys” value ([2]; 1 h after 100 nmol iv) was “extensive uptake”, the “heart/blood ratio, in ratio (TPMP = 1)” value ([2]; 1 h after iv injection) was 11 and the “uptake into the heart, ratio (TPMP = 1)” value ([2]; 1 h after iv injection) was 6. The “heart/blood ratio, in ratio (TPMP = 1)” value ([2]; 5 h after iv injection) was 26, the “uptake into the heart, ratio (TPMP = 1)” value ([2]; 5 h after iv injection) was 10 and the “half life for loss from the heart” value [2, 9] was ~15 h. For the same compound, the “half life for loss from the kidneys” value [2, 9] was ~4 h, the “half life for loss from the liver” value [2, 9] was ~2 h and the “time of maximum uptake into tissues” value ([2]; mice, 100 nmol iv, earliest time measurable) was 5 min.
In the case of `C[P+](c1ccccc1)(c1ccccc1)c1ccccc1` [TPMP], the “half life for loss from the heart” value [2, 9] is reported as ~2 h, the “half life for loss from the kidneys” value [2, 9] is reported as ~2 h and the “half life for loss from the liver” value [2, 9] is reported as ~3 h. For the same compound, the “half life for clearance from fat and muscle” value ([2]; mice, 100 nmol iv bolus, estimate only) was 1 to 2 h.
